Measured values from patent publication US6495699B2, “Metalloproteinase inhibitors, pharmaceutical compositions containing them, and their use” (Agouron Pharmaceuticals Inc., priority 1996, dated 2002).
Structures can show the parent of a compound that is named as a salt.

Experiments:
[1] = biological target: T1, catalytic domain of human stromelysin (Hsln) (Homo sapiens, UniProt P08254); test: Fluorometric MCA-peptide hydrolysis assay, stromelysin (Hsln); type: biochemical; settings: apparent Ki; 10 μM MCA peptide substrate, 37° C., pH 7.5; read-out: Hsln (Ki,app)
T1 construct: The catalytic domain of human stromelysin (Hsln) was obtained by expression and purification of a C-terminally truncated prostromelysin-1; made in house; host or cells: E. coli BL21
T1 sequence (P08254 100-272 limits assumed): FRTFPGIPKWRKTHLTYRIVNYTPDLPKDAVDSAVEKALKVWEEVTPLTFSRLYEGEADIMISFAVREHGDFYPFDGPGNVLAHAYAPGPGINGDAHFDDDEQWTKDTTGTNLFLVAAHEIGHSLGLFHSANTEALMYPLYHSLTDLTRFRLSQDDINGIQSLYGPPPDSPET
Description: The catalytic domain of human stromelysin (Hsln) was obtained by expression and purification of a C-terminally truncated prostromelysin-1 from E. coli host BL21 (see Marcy et al. Biochem., 1991, 30, 6476). The subsequent activation of the mature form (Hsln) was completed with 2 mM APMA for 1 hour at 37° C., followed by separation using a sizing column.
(§1) Assays were performed in assay buffer (50 mM Tricine pH 7.5, 200 mM sodium chloride, 10 mM calcium chloride, 0.5 mM zinc acetate containing 2% dimethyl sulfoxide (DMSO)) once the substrate and inhibitor were diluted into it. Stock solutions of inhibitors were prepared in 100% DMSO. Stock solutions of the substrate were prepared in 100% DMSO at a concentration of 6 mM.
(§2) The assay method was based on the hydrolysis of MCA-Pro-Leu-Gly-Leu-DPA-Ala-Arg-NH2 (American Peptide Co.) at 37° C. (see Knight, C. G. et al., FEBS, 1992, 296, 263-266). The fluorescence changes were monitored with a Perkin-Elmer LS-50B fluorimeter using an excitation wavelength of 328 nm and an emission wavelength of 393 nm. The substrate concentration used in the assays was 10 μM. The inhibitor was diluted into the assays from a solution in 100% DMSO, and controls substituted an equal volume of DMSO so that the final DMSO concentration from inhibitor and substrate dilution in all assays was 2%. […] Proper determination of steady-state rates of substrate cleavage required assay lengths of 60 minutes to allow for complete equilibration of the enzyme-inhibitor complex.
(§3) The Km for the MCA peptide substrate with the matrix metalloproteinases is quite high and exceeds its solubility under assay conditions. Consequently, the apparent Ki (Ki,app) was determined to describe the strength of inhibition. However, in this case, Ki,app would be essentially equal to Ki since [S]<<Km. For the determination of Ki,app, the concentration of the inhibitor was varied at a constant and low concentration of substrate and the steady-state rates of fluorescence change determined. In most cases absorptive quench due to the presence of ligand was not observed. For slow-binding inhibitors, onset of inhibition curves were collected for at least 45 minutes so that equilibrium was established. Steady-state rates of fluorescence change were obtained by fitting a curve to an equation for a single exponential decay containing a linear phase. The fitted value of the linear phase was taken as the steady-state rate. The steady-state rates were fitted to the Michaelis equation describing competitive inhibition by non-linear methods. Data resulting from tight-binding inhibition was analyzed, and Ki,app determined by fitting the data to the tight-binding equation of Morrison (Biochem. Biophys. Acta, vol. 185, pp. 269-286 (1969)) by non-linear methods.

Human matrilysin (Matr) = biological target: T2, Human matrilysin (Matr) (Homo sapiens, UniProt P09237); test: Fluorometric MCA-peptide hydrolysis assay, matrilysin (Matr); type: biochemical; settings: apparent Ki; 10 μM MCA peptide substrate, 37° C., pH 7.5; read-out: Matr (Ki,app)
T2 construct: the catalytic domain was liberated by treatment with 2 mM APMA at 37° C. for 2 hours; ubiquitin (cleaved yes); made in house; host or cells: E. coli
T2 sequence (P09237 95-267): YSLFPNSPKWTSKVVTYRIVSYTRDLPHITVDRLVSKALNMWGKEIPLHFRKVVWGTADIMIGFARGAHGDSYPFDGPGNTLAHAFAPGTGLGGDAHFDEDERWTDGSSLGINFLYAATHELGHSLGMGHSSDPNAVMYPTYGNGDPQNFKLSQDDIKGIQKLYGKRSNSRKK
Description: Human matrilysin (Matr) was expressed in E. coli as a fusion protein with ubiquitin. After purification of the matrilysin/ubiquitin fusion from inclusion bodies, the catalytic domain was liberated by treatment with 2 mM APMA at 37° C. for 2 hours. Final purification was complete using copper chelate chromatography.
as §1, §2, §3

[2] = biological target: T3, human progelatinase A (GelA), catalytic and fibronectin-like portion (Homo sapiens, UniProt P08253); test: Fluorometric MCA-peptide hydrolysis assay, gelatinase A (GelA); type: biochemical; settings: apparent Ki; 10 μM MCA peptide substrate, 37° C., pH 7.5
T3 construct: The catalytic and fibronectin-like portion of human progelatinase A (GelA) was expressed as a fusion protein with ubiquitin; ubiquitin; made in house; host or cells: E. coli
T3 sequence (P08253 110-465 limits assumed): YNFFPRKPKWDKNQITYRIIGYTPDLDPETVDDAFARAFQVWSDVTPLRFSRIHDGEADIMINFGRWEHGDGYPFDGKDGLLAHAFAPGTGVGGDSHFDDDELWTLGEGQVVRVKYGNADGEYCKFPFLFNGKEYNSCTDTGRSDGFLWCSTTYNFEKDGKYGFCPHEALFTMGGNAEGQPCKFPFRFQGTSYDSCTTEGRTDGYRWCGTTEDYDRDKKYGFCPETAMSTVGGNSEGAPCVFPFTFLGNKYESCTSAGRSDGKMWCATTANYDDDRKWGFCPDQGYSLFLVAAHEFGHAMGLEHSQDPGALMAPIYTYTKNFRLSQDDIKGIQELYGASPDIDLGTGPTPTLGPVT
Description: The catalytic and fibronectin-like portion of human progelatinase A (GelA) was expressed as a fusion protein with ubiquitin in E. Coli. Assays were carried out on autocatalytically activated material.
as §1, §2, §3

[3] = biological target: T4, human collagenase-3 (Coll3) (Homo sapiens, UniProt P45452); test: Fluorometric MCA-peptide hydrolysis assay, collagenase-3 (Coll3); type: biochemical; settings: apparent Ki; 10 μM MCA peptide substrate, 37° C., pH 7.5; read-out: Coll3 (Ki,app)
T4 construct: the catalytic domain was liberated by treatment with 2 mM APMA at room temperature overnight; ubiquitin (N, cleaved yes); made in house; host or cells: E. coli
Description: The propeptide and catalytic domain of human collagenase-3 (Coll3) was expressed in E. coli as an N-terminal fusion protein with ubiquitin. After purification of the fusion from inclusion bodies, the catalytic domain was liberated by treatment with 2 mM APMA at room temperature overnight. Final purification was completed using copper chelate chromatography.
as §1, §2
as §3, with “In most cases absorptive quench due to the presence of ligand was not observed.” left out

Structure (SMILES)	Ki [1] [nM]	melting point	Ki (Human matrilysin (Matr)) [nM]	GelA (Ki,app) [2] [nM]	Ki [3] [nM]
N#Cc1ccc(-c2ccc(-c3ccn([C@H](CC(=O)O)C(=O)N[C@H](CO)Cc4ccccc4)c3)cc2)cc1 [Example 4(a), N-(1(S)-Benzyl-2-hydroxyethyl)-3(R)-[3-(4′-cyanobiphenyl-4-yl)-1H-pyrrol-1-yl]succinamic Acid]	30	189 to 192 °C	5200	1.3	2.7
O=C(O)C[C@H](C(=O)N[C@H](CO)Cc1ccccc1)n1cc(-c2ccc(-c3ccccc3)cc2)cn1 [Example 16, N-(1(S)-Benzyl-2-hydroxyethyl)-3(R)-[4-(biphenyl-4-yl)-pyrazol-1-yl]succinamic Acid]	1500	154 to 159 °C	63000	81	–
CC(C)(C)[C@@H](CO)NC(=O)C(CC(=O)O)n1cnc(-c2ccc(-c3ccccc3)cc2)c1 (mixture of isomers) [Example 18(b), 3(RS)-(3-Biphenyl-4-yl-1H-imidazol-1-yl)-N-(2,2-dimethyl-1(S)-hydroxymethylpropyl)succinamic Acid]	3000	145 to 150 °C	> 100000	–	–
COC[C@H](Cc1ccccc1)NC(=O)[C@@H](CC(=O)O)n1ccc(-c2ccc(-c3ccccc3)cc2)c1 [Example 1(f), N-(1(S)-Benzyl-2-methoxyethyl)-3(R)-[3-(biphenyl-4-yl)-1H-pyrrol-1-yl]succinamic Acid]	331	247 °C	1000	93	542
O=C(C[C@H](C(=O)N[C@H]1Cc2cn(c3ccccc23)CCCCCCNC1=O)n1cccc1)NO [Example 8(c), N ^4Hydroxy-N^1-(9-oxo-1,8-diaza-tricyclo[10.6.1.0^13,18]nonadeca-12(19),13,15,17-tetraen-10S-yl)-3(R)-1H-(pyrrol-1-yl)succinamide]	–	158 to 165 °C	–	–	–
CCC[C@H](C(=O)O)[C@H](C(=O)N[C@H](CO)C(C)(C)C)n1ccc(-c2ccc(-c3ccc(C#N)cc3)cc2)c1 [Example 10(c), 2S-[1R-(3-(4′-Cyanobiphenyl-4-yl)-1H-pyrrol-1-yl)-1-(2,2-dimethyl-1(S)-(hydroxymethyl)propylcarbamoyl)-methyl]-pentanoic Acid]	40	130 to 132 °C	2180	22	50
CC(C)(O)C(CO)NC(=O)[C@@H](CC(=O)O)n1ccc(-c2ccc(-c3ccccc3)cc2)c1 (stereo in doubt) [Example 1(i), 3(R)-[3-(Biphenyl-4-yl)-1H-pyrrol-1-yl]-N-[2-hydroxy-1(S)-(hydroxymethyl)-2-methylpropyl]succinamic Acid]	113	150 to 152 °C	–	8	89.6
CC(C)(C)[C@H](NC(=O)[C@@H](CC(=O)O)n1ccc(-c2ccc(-c3ccc(C#N)cc3)cc2)c1)C(=O)Nc1ccncc1 (as salt: salt) [Example 5(d), 3(R)-[3-(4′-Cyanobiphenyl-4-yl)-1H-pyrrol-1-yl]-N-[2,2-dimethyl-1(S)-(pyridin-4-ylcarbamoyl)propyl]succinamic Acid Formate Salt]	–	134 to 136 °C	–	–	–
CC(C)(C)[C@H](NC(=O)C(CC(=O)O)c1ccsc1)C(=O)Nc1ccncc1 (stereo in doubt) [Example 17(c), N-[2,2-Dimethyl-1(S)-(pyridin-4-ylcarbamoyl)-propyl]-3(R)-thien-3-yl-succinamic Acid]	935	205 °C (dec.)	156	157	–
CCCc1ccc(-c2ccn([C@H](CC(=O)O)C(=O)N[C@H](C(=O)NC)C(C)(C)C)c2)cc1 [Example 1(j), N-[2,2-Dimethyl-1(S)-(methylcarbamoyl)propyl]-3(R)-[3-(4-propylphenyl)-1H-pyrrol-1-yl]succinamic Acid]	133	104 to 106 °C	–	1.43	9.43
CCCC(C(=O)O)[C@H](C(=O)N[C@H](CO)Cc1ccccc1)n1ccc(-c2ccc(-c3ccc(C#N)cc3)cc2)c1 (mixture of isomers) [Example 10(b), 2(RS)-{1R-[1(S)-Benzyl-2-hydroxyethylcarbamoyl]-[3-(4′-cyano-biphenyl-4-yl)-1H-pyrrol-1-yl]-methyl}-pentanoic Acid]	16	–	510	9.6	23.5
CC(C)(C)[C@@H](CO)NC(=O)[C@@H](CC(=O)O)n1ccc(-c2ccc(-c3ccc(C(N)=O)cc3)cc2)c1 [Example 4(c), 3(R)-[3-(4′-Carbamoylbiphenyl-4-yl)-1H-pyrrol-1-yl]-N-(1(S)-hydroxymethyl-2,2-dimethyl-propyl)succinamic Acid]	64	192 to 194 °C	2530	7.2	–
CC(C)C[C@H](NC(=O)[C@@H](CC(=O)O)c1ccn(-c2ccc(-c3ccc(C#N)cc3)cc2)c1)c1ncc[nH]1 [Example 14(c), 3(S)-[1-(4′-Cyanobiphenyl-4-yl)-1H-pyrrol-3-yl]-N-[1(S)-(1H-imidazol-2-yl)-3-methylbutyl]succinamic Acid]	17.7	206 to 210 °C (dec.)	–	0.044	–
CCC[C@H](C(=O)O)[C@H](C(=O)N[C@H](CO)Cc1ccccc1)n1ccc(-c2ccc(-c3ccccc3)cc2)c1 [Example 10(a), 2S-[1R-(1(S)-Benzyl-2-hydroxyethylcarbamoyl)-(3-biphenyl-4-yl-1H-pyrrol-1-yl)-methyl]-pentanoic Acid]	–	179 to 181 °C (dec.)	617	3.3	50
